Experimental findings from patent publication US12617797B2, “Substituted pyrazolo [1,5-a]pyrimidines having multimodal activity against pain” (ESTEVE PHARMACEUTICALS, S.A., priority 2020, dated 2026) are described below.

Assay [1] concerns the target Human α2δ-1 subunit of Cav2.2 calcium channel (Homo sapiens, UniProt P54289). The assay is described as follows: Human α2δ-1 subunit of Cav2.2 calcium channel assay ([3H]-gabapentin binding). The following applies: binding to the α2δ-1 subunit of voltage-gated calcium channels expressed as Ki; + also covers inhibition between 1% and 50%. The procedure, abridged: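 Displacement of 15 nM [3H]-gabapentin from human α2δ-1-enriched membranes (Hepes-KOH 10 mM, pH 7.4; 27 °C, 60 min) read by filter binding and radioactivity counting. Values are single-point % inhibition (1 or 10 μM) or five-point Ki; 10 μM pregabalin sets NSB.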

The next assay concerns the target T1, Human σ1 receptor (Homo sapiens, UniProt Q99720).
T1 construct: expressed in transfected cells; host or cells: HEK-293
Kind of assay: Human σ1 receptor radioligand assay ([3H](+)-pentazocine binding, transfected HEK-293 membranes). The following applies: binding to σ1 receptor expressed as Ki; + also covers inhibition between 1% and 50%; read-out: σ-1 binding. The procedure, abridged: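 Ki was derived from five test concentrations, or % inhibition was measured at a single 1 or 10 μM dose, against 5 nM [3H](+)-pentazocine. Incubation was 120 min at 37° C in 50 mM Tris-HCl pH 8 with 7 μg HEK-293 membranes, and 10 μM haloperidol set non-specific binding. Bound radioactivity was counted after filtration.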

Chain of Human α2δ-1 subunit of Cav2.2 calcium channel (P54289 25-1103): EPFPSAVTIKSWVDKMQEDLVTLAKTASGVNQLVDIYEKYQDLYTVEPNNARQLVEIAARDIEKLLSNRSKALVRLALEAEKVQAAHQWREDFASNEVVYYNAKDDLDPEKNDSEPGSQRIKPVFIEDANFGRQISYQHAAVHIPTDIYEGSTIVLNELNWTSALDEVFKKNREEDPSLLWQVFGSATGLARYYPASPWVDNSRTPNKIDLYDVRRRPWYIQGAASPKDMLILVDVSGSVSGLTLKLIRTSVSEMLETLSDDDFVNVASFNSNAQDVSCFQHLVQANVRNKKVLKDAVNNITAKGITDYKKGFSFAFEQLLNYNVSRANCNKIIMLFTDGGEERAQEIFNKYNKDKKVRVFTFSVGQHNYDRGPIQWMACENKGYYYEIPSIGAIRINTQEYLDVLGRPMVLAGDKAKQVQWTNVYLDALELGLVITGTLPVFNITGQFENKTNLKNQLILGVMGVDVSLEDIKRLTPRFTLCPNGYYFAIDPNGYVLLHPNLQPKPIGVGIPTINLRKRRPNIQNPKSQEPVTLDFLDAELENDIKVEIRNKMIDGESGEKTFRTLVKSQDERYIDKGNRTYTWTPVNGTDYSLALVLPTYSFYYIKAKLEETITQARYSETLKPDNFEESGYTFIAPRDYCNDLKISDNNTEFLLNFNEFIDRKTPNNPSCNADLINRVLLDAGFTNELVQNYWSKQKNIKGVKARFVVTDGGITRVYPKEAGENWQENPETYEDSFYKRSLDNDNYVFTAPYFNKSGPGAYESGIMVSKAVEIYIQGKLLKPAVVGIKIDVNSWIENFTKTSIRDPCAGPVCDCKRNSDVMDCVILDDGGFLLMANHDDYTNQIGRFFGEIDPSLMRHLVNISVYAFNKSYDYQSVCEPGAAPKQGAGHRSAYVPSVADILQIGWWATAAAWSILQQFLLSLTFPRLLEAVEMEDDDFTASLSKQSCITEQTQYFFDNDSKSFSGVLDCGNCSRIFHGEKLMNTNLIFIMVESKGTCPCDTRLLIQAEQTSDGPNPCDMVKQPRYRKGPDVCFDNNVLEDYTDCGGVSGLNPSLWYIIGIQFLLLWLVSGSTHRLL
T1 sequence (Q99720 whole entry): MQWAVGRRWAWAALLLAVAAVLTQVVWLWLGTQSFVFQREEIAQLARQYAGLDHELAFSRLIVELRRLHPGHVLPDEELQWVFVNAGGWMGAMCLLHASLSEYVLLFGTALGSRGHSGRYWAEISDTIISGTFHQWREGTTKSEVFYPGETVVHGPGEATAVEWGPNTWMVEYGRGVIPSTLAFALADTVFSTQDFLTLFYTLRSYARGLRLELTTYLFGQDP

Turning to `Cc1nn2c(C3CCCN(Cc4ccccc4)C3)ccnc2c1N(C)C` (centres unmarked) [Example 142, 7-(1-Benzylpiperidin-3-yl)-N,N,2-trimethylpyrazolo[1,5-a]pyrimidin-3-amine], the Ki in assay [1] is greater than 5000 nM; at Human σ1 receptor, greater than 1000 nM.
The like results for `Cc1nn2c(C3CCCN(Cc4ccccc4)C3)ccnc2c1N(C)Cc1ccccc1` (centres unmarked) [Example 143, N-Benzyl-7-(1-benzylpiperidin-3-yl)-N,2-dimethylpyrazolo[1,5-a]pyrimidin-3-amine] were, in that order, greater than 5000 nM and 500 to 1000 nM.
Taken in the same sequence, the figures for `Cc1nn2c(C3CCCN(Cc4ccc(Cl)cc4)C3)ccnc2c1CNCc1ccccc1` (centres unmarked) [Example 144, N-Benzyl-1-(7-(1-(4-chlorobenzyl)piperidin-3-yl)-2-methylpyrazolo[1,5-a]pyrimidin-3-yl)methanamine] were 500 to 5000 nM and less than 500 nM.
Consider `Cc1nn2c(C3CCCN(Cc4ccc(Cl)cc4)C3)ccnc2c1CN(C)Cc1ccccc1` (centres unmarked) [Example 145, N-Benzyl-1-(7-(1-(4-chlorobenzyl)piperidin-3-yl)-2-methylpyrazolo[1,5-a]pyrimidin-3-yl)-N-methylmethanamine], for which the Ki was 500 to 5000 nM in assay [1] and less than 500 nM at Human σ1 receptor.
The like results for `Cc1nn2c(C3CCCN(Cc4ccc(Cl)cc4)C3)ccnc2c1CNCc1ccc(F)cc1` (centres unmarked) [Example 146, 1-(7-(1-(4-Chlorobenzyl)piperidin-3-yl)-2-methylpyrazolo[1,5-a]pyrimidin-3-yl)-N-(4-fluorobenzyl)methanamine] were, in that order, 500 to 5000 nM and less than 500 nM.
In the case of `Cc1nn2c(C3CCCN(Cc4ccc(Cl)cc4)C3)ccnc2c1CNCc1ccc(CO)cc1` (centres unmarked) [Example 147, (4-((((7-(1-(4-Chlorobenzyl)piperidin-3-yl)-2-methylpyrazolo[1,5-a]pyrimidin-3-yl)methyl)amino)methyl)phenyl)methanol], the Ki in assay [1] is greater than 5000 nM; at Human σ1 receptor, less than 500 nM.
Taken in the same sequence, the figures for `Cc1nn2c(C3CCCN(Cc4ccc(Cl)cc4)C3)ccnc2c1CNCc1ccncc1` (centres unmarked) [Example 148, 1-(7-(1-(4-Chlorobenzyl)piperidin-3-yl)-2-methylpyrazolo[1,5-a]pyrimidin-3-yl)-N-(pyridin-4-ylmethyl)methanamine] were 500 to 5000 nM and less than 500 nM.
Consider `Cc1nn2c(C3CCCN(Cc4ccc(Cl)cc4)C3)ccnc2c1CNCc1cccs1` (centres unmarked) [Example 149, 1-(7-(1-(4-Chlorobenzyl)piperidin-3-yl)-2-methylpyrazolo[1,5-a]pyrimidin-3-yl)-N-(thiophen-2-ylmethyl)methanamine], for which the Ki in assay [1] was 500 to 5000 nM; on Human σ1 receptor, less than 500 nM.
The like results for `Cc1ccc(CNCc2c(C)nn3c(C4CCCN(Cc5ccc(Cl)cc5)C4)ccnc23)s1` (centres unmarked) [Example 150, 1-(7-(1-(4-Chlorobenzyl)piperidin-3-yl)-2-methylpyrazolo[1,5-a]pyrimidin-3-yl)-N-((5-methylthiophen-2-yl)methyl)methanamine] were, in that order, 500 to 5000 nM and less than 500 nM.
The like results for `Cc1nn2c(C3CCCN(Cc4ccc(Cl)cc4)C3)ccnc2c1CNCc1ccn(C)n1` (centres unmarked) [Example 151, 1-(7-(1-(4-Chlorobenzyl)piperidin-3-yl)-2-methylpyrazolo[1,5-a]pyrimidin-3-yl)-N-((1-methyl-1H-pyrazol-3-yl)methyl)methanamine] were, in that order, 500 to 5000 nM and less than 500 nM.
Taken in the same sequence, the figures for `Cc1nnc(CNCc2c(C)nn3c(C4CCCN(Cc5ccc(Cl)cc5)C4)ccnc23)o1` (centres unmarked) [Example 152, 1-(7-(1-(4-Chlorobenzyl)piperidin-3-yl)-2-methylpyrazolo[1,5-a]pyrimidin-3-yl)-N-((5-methyl-1,3,4-oxadiazol-2-yl)methyl)methanamine] were greater than 5000 nM and 500 to 1000 nM.
In the case of `Cc1nn2c(C3CCCN(Cc4ccc(Cl)cc4)C3)ccnc2c1CNCCc1ccccc1` (centres unmarked) [Example 153, N-((7-(1-(4-Chlorobenzyl)piperidin-3-yl)-2-methylpyrazolo[1,5-a]pyrimidin-3-yl)methyl)-2-phenylethan-1-amine], the Ki was 500 to 5000 nM in assay [1] and less than 500 nM on Human σ1 receptor.
As for `COc1ccc(CCNCc2c(C)nn3c(C4CCCN(Cc5ccc(Cl)cc5)C4)ccnc23)cc1` (centres unmarked) [Example 154, N-((7-(1-(4-Chlorobenzyl)piperidin-3-yl)-2-methylpyrazolo[1,5-a]pyrimidin-3-yl)methyl)-2-(4-methoxyphenyl)ethan-1-amine], the Ki in assay [1] fell in the range of 500 to 5000 nM; on Human σ1 receptor, 500 to 1000 nM.
The like results for `CCNCc1c(C)nn2c(C3CCCN(Cc4ccc(Cl)cc4)C3)ccnc12` (centres unmarked) [Example 155, N-((7-(1-(4-Chlorobenzyl)piperidin-3-yl)-2-methylpyrazolo[1,5-a]pyrimidin-3-yl)methyl)ethanamine] were, in that order, 500 to 5000 nM and less than 500 nM.
With `Cc1nn2c(C3CCCN(Cc4ccc(Cl)cc4)C3)ccnc2c1CNCC(F)(F)F` (centres unmarked) [Example 156, N-((7-(1-(4-Chlorobenzyl)piperidin-3-yl)-2-methylpyrazolo[1,5-a]pyrimidin-3-yl)methyl)-2,2,2-trifluoroethan-1-amine], the figures for the Ki (in assay [1]; at Human σ1 receptor) were greater than 5000 nM and 500 to 1000 nM, respectively.
The like results for `Cc1nn2c(C3CCCN(Cc4ccc(Cl)cc4)C3)ccnc2c1CNCC1CC1` (centres unmarked) [Example 157, 1-(7-(1-(4-Chlorobenzyl)piperidin-3-yl)-2-methylpyrazolo[1,5-a]pyrimidin-3-yl)-N-(cyclopropylmethyl)methanamine] were, in that order, 500 to 5000 nM and less than 500 nM.
The like results for `Cc1nn2c(C3CCCN(Cc4ccc(Cl)cc4)C3)ccnc2c1CNCCO` (centres unmarked) [Example 158, 2-(((7-(1-(4-Chlorobenzyl)piperidin-3-yl)-2-methylpyrazolo[1,5-a]pyrimidin-3-yl)methyl)amino)ethan-1-ol] were, in that order, 500 to 5000 nM and less than 500 nM.
Taken in the same sequence, the figures for `Cc1nn2c(C3CCCN(Cc4ccc(Cl)cc4)C3)ccnc2c1CNC(C)C` (centres unmarked) [Example 159, N-((7-(1-(4-Chlorobenzyl)piperidin-3-yl)-2-methylpyrazolo[1,5-a]pyrimidin-3-yl)methyl)propan-2-amine] were 500 to 5000 nM and less than 500 nM.
Regarding `Cc1nn2c(C3CCCN(Cc4ccc(Cl)cc4)C3)ccnc2c1CNCC(C)C` (centres unmarked) [Example 160, N-((7-(1-(4-Chlorobenzyl)piperidin-3-yl)-2-methylpyrazolo[1,5-a]pyrimidin-3-yl)methyl)-2-methylpropan-1-amine], the Ki in assay [1] is 500 to 5000 nM; on Human σ1 receptor it was less than 500 nM.
Taken in the same sequence, the figures for `Cc1nn2c(C3CCCN(Cc4ccc(Cl)cc4)C3)ccnc2c1CNCCC(C)C` (centres unmarked) [Example 161, N-((7-(1-(4-Chlorobenzyl)piperidin-3-yl)-2-methylpyrazolo[1,5-a]pyrimidin-3-yl)methyl)-3-methylbutan-1-amine] were 500 to 5000 nM and less than 500 nM.
Taken in the same sequence, the figures for `Cc1nn2c(C3CCCN(Cc4ccc(Cl)cc4)C3)ccnc2c1CNCCOC(C)C` (centres unmarked) [Example 162, N-((7-(1-(4-Chlorobenzyl)piperidin-3-yl)-2-methylpyrazolo[1,5-a]pyrimidin-3-yl)methyl)-2-isopropoxyethan-1-amine] were 500 to 5000 nM and less than 500 nM.
For the compound `COCCCCNCc1c(C)nn2c(C3CCCN(Cc4ccc(Cl)cc4)C3)ccnc12` (centres unmarked) [Example 163, N-((7-(1-(4-Chlorobenzyl)piperidin-3-yl)-2-methylpyrazolo[1,5-a]pyrimidin-3-yl)methyl)-4-methoxybutan-1-amine], the Ki (in assay [1]; on Human σ1 receptor) was less than 500 nM each time.
`Cc1nn2c(C3CCCN(Cc4ccc(Cl)cc4)C3)ccnc2c1CN1C[C@@H](C)O[C@@H](C)C1` (stereo partly drawn) [Example 164, (2S,6R)-4-((7-(1-(4-Chlorobenzyl)piperidin-3-yl)-2-methylpyrazolo[1,5-a]pyrimidin-3-yl)methyl)-2,6-dimethylmorpholine]: the figures for the Ki (in assay [1]; on Human σ1 receptor) were 500 to 5000 nM and 500 to 1000 nM, respectively.
Taken in the same sequence, the figures for `Cc1nn2c(C3CCCN(Cc4ccc(Cl)cc4)C3)ccnc2c1CN1CCOCC1` (centres unmarked) [Example 165, 4-((7-(1-(4-Chlorobenzyl)piperidin-3-yl)-2-methylpyrazolo[1,5-a]pyrimidin-3-yl)methyl)morpholine] were greater than 5000 nM and 500 to 1000 nM.
The like results for `Cc1nn2c(C3CCCN(Cc4ccc(Cl)cc4)C3)ccnc2c1CNCCN1CCOCC1` (centres unmarked) [Example 166, N-((7-(1-(4-Chlorobenzyl)piperidin-3-yl)-2-methylpyrazolo[1,5-a]pyrimidin-3-yl)methyl)-2-morpholinoethan-1-amine] were, in that order, 500 to 5000 nM and less than 500 nM.
Taken in the same sequence, the figures for `Cc1nn2c(C3CCCN(Cc4ccc(Cl)cc4)C3)ccnc2c1CN1CCSCC1` (centres unmarked) [Example 167, 4-((7-(1-(4-Chlorobenzyl)piperidin-3-yl)-2-methylpyrazolo[1,5-a]pyrimidin-3-yl)methyl)thiomorpholine] were 500 to 5000 nM and less than 500 nM.
On to `Cc1nn2c(C3CCCN(Cc4ccc(Cl)cc4)C3)ccnc2c1CN1CCS(=O)(=O)CC1` (centres unmarked) [Example 168, 4-((7-(1-(4-Chlorobenzyl)piperidin-3-yl)-2-methylpyrazolo[1,5-a]pyrimidin-3-yl)methyl)thiomorpholine 1,1-dioxide], for which the values for the Ki (in assay [1]; at Human σ1 receptor) were 500 to 5000 nM and 500 to 1000 nM, respectively.
Taken in the same sequence, the figures for `Cc1nn2c(C3CCCN(Cc4ccc(Cl)cc4)C3)ccnc2c1CN1CCCCC1` (centres unmarked) [Example 169, 7-(1-(4-Chlorobenzyl)piperidin-3-yl)-2-methyl-3-(piperidin-1-ylmethyl)pyrazolo[1,5-a]pyrimidine] were 500 to 5000 nM and less than 500 nM.
